Test results reported in paper PMC7016641, “The Role of Transient Receptor Potential Melastatin 7 (TRPM7) in Cell Viability: A Potential Target to Suppress Breast Cancer Cell Cycle” (Cancers, 2020).

Biological target: T1, TRPM7 (transient receptor potential melastatin 7) (Mus musculus, UniProt Q923J1)
T1 construct: murine TRPM7 (GenBank AF376052) overexpressed in HEK293 (HEK-M7)
Experiment: whole-cell patch clamp at +[…] mV; Fura-2 Mn2+ quench gave IC50 […]
Assay type: cell-based

T1 sequence (Q923J1 whole entry): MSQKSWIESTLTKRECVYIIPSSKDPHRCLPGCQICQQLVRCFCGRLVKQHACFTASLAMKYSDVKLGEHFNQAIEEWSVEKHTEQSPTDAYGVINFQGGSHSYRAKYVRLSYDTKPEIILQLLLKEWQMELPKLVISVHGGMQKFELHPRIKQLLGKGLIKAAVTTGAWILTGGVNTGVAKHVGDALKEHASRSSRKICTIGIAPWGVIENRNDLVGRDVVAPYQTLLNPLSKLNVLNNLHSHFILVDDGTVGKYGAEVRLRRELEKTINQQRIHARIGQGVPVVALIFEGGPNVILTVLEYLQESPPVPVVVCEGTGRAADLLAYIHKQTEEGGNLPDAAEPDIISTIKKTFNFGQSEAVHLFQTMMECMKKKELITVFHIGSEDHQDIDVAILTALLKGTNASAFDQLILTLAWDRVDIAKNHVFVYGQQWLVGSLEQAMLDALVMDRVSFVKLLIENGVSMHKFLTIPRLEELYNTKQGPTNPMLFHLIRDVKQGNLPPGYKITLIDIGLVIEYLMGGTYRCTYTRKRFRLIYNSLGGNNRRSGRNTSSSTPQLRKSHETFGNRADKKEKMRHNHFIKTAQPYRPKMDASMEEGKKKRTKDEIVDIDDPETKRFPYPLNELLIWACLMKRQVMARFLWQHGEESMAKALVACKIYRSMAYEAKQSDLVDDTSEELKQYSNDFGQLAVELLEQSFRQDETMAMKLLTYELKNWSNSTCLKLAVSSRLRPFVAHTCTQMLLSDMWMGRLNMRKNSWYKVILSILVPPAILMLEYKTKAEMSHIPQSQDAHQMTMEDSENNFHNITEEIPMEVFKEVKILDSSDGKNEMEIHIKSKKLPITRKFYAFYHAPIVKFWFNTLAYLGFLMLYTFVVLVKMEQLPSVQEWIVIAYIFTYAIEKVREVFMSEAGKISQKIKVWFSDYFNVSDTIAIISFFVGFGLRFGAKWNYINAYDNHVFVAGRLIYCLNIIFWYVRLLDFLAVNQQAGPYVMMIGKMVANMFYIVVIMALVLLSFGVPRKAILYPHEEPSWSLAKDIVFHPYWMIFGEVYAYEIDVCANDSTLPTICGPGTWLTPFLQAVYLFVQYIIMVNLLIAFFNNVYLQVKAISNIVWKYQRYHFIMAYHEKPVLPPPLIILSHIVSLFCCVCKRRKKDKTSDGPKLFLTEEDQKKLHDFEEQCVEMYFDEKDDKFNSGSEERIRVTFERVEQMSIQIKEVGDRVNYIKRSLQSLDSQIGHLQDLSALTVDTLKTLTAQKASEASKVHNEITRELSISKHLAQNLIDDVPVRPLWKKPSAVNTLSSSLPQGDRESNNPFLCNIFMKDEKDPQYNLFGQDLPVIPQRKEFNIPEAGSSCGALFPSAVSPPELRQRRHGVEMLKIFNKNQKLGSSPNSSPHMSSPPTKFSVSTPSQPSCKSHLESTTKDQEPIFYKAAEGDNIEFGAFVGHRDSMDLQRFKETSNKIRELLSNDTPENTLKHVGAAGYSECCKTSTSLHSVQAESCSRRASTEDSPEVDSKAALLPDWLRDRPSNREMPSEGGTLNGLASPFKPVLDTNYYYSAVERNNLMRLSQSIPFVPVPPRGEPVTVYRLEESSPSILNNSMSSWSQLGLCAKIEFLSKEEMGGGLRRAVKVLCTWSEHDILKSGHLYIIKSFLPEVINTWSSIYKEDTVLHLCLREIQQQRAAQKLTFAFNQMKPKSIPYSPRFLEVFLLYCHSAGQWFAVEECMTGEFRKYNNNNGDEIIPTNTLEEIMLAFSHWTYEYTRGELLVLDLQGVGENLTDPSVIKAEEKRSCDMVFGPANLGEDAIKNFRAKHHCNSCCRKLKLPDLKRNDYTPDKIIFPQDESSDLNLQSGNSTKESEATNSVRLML

Q: How did the IC50 turn out when `NCCOB(c1ccccc1)c1ccccc1` [2-APB, 2-aminoethyl diphenylborinate] was run?
A: 120 ± 16 µM
